Test results: patent US20240002404A1, “SALT OF PYRROLOPYRIMIDINE COMPOUND, CRYSTALLINE FORM THEREOF, AND APPLICATION THEREOF” (GUANGZHOU JOYO PHARMATECH CO., LTD, priority 2020, published 2024)

What was measured:
[1] = in vitro; settings: human, Caco-2, pH 7.4
Protocol: (§1) The transport buffer solution was HBSS (Hanks' balanced salt solution) and 10 mM HEPES [N-(2-hydroxyethyl)piperazine-N-(2-ethanesulfonic acid) solution], with a pH value of 7.40±0.05; Caco-2 cells were purchased from ATCC.
(§2) Caco-2 cells were seeded at 1×10^5 cells/cm^2 in 96-well BD insert plates of polyethylene terephthalate (PET), and the medium was refreshed every 4-5 days until day 21-28 to form a confluent monolayer. Test compounds were tested in a two-way format at 2 μM in duplicate. Digoxin was added at 10 μM in the two-way format, and nadolol and metoprolol were added at 2 μM in the two-way format. Final concentration of DMSO was adjusted to less than 1%. The plates were incubated in a CO2 incubator at 37±1° C. for 2 h with 5% CO2 at saturated humidity without shaking. All samples were mixed with acetonitrile containing an internal standard, and centrifuged at 4000 rpm for 10 min. 100 microliters of supernatant was diluted with 100 microliters of distilled water for LC/MS/MS analysis. By LC/MS/MS analysis, the concentrations of the test compounds and the reference compound in the initial test article solution, the test article solution and the test compound solution using the peak area ratio of the analyte to the internal standard. After the transport test, the integrity of the Caco-2 cell monolayer was determined by fluorescein yellow exclusion reaction, and the apparent permeability coefficient and efflux ratio were calculated.

[2] = target: JAK3(h) (Homo sapiens (Human), UniProt P52333); assay: In vitro activity assay of JAK3 kinase (radiometric, Eurofins); assay type: biochemical
JAK3(h), sequence (P52333 whole entry): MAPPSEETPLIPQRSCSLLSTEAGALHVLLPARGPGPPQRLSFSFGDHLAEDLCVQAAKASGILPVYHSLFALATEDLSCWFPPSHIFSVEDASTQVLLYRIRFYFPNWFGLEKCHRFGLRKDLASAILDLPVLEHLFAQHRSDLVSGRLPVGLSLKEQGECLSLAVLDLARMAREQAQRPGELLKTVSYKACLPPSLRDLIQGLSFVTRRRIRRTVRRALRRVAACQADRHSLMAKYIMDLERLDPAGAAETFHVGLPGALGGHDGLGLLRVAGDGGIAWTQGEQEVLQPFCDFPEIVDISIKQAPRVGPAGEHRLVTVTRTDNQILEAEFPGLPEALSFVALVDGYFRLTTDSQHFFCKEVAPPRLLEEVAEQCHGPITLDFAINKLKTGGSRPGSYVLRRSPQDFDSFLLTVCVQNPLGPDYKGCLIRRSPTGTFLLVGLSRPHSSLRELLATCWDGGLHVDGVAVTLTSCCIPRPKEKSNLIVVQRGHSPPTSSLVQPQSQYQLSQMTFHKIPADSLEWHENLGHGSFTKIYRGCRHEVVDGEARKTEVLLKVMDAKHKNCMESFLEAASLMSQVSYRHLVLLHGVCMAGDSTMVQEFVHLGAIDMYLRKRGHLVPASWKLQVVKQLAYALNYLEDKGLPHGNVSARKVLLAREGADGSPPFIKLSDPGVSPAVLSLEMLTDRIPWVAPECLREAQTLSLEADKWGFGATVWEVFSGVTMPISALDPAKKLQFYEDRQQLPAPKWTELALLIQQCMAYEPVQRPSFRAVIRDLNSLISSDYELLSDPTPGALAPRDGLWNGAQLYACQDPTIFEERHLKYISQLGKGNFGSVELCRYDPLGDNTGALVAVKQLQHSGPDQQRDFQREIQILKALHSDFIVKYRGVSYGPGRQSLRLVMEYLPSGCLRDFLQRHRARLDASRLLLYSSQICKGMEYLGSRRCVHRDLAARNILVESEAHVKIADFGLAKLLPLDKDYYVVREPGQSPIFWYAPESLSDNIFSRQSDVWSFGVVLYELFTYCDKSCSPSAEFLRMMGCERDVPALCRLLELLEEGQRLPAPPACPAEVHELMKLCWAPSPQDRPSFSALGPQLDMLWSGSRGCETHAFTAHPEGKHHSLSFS
Protocol: (§3) Recombinant human JAK1, JAK2, JAK3 and TYK2 […], and main instruments and reagents were provided by Eurofins, UK.
(§4) Dilution of JAK2, JAK3 and TYK2: 20 mM 3-(N-morpholino)propanesulfonic acid (MOPS), 1 mM EDTA, 0.01% Brij-35.5% glycerol, 0.1% β-mercaptoethanol, 1 mg/mL BSA; dilution of JAK1: 20 mM TRIS, 0.2 mM EDTA, 0.1% β-mercaptoethanol, 0.01% Brij-35.5% glycerol. All compounds were prepared into a 100% DMSO solution and brought to 50-fold the final assay concentration. The test compounds were diluted in 3-fold concentration gradient with 9 final concentrations from 10 μM to 0.001 μM, wherein DMSO content in the assay reaction was 2%. Working stock solutions of the compounds were added to the assay wells as the first component of the reaction, and then the remaining components were added according to the protocol detailed for the assay below.
(§5) JAK3(h) was incubated with 8 mM MOPS pH 7.0, 0.2 mM EDTA, 500 μM GGEEEEYFELVKKKK, 10 mM magnesium acetate and [γ-^33P]-ATP (activity and concentration were determined as required). […] 10 μL of the reaction mixture was then added dropwise on a P30 filter pad and washed three times with 0.425% phosphoric acid and once with methanol within 4 minutes, then dried and analyzed using a scintillation counter.

[3] = target: JAK2(h) (Homo sapiens (Human), UniProt O60674); assay: In vitro activity assay of JAK2 kinase (radiometric, Eurofins); assay type: biochemical
JAK2(h), sequence (O60674 whole entry): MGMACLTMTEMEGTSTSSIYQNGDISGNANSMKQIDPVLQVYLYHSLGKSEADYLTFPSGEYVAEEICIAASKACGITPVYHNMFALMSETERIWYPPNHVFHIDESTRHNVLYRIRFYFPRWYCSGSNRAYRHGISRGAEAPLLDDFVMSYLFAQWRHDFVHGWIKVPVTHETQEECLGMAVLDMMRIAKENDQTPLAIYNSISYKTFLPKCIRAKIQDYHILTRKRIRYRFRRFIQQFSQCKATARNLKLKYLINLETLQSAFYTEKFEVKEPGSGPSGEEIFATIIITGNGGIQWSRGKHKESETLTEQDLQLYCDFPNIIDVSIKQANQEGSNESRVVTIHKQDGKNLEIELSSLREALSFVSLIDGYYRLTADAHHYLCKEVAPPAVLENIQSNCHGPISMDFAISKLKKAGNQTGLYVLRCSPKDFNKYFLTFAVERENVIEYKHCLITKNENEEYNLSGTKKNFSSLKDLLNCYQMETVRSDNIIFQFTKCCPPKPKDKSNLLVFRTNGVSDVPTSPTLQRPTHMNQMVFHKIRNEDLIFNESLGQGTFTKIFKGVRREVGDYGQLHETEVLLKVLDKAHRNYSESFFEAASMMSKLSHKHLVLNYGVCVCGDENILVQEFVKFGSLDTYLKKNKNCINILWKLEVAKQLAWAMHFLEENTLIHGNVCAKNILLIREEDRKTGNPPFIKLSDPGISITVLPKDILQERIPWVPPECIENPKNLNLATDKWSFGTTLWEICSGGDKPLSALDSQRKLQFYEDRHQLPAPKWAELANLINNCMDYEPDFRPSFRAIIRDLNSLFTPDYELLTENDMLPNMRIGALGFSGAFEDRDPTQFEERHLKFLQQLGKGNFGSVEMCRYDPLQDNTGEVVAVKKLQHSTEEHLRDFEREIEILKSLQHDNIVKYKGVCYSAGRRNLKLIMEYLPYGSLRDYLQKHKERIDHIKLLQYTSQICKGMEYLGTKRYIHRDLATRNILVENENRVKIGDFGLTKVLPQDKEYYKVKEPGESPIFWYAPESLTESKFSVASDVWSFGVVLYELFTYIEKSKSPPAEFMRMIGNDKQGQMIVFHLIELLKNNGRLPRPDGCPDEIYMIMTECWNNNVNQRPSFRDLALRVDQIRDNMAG
Protocol: as §3, §4
JAK2(h) was incubated with 8 mM MOPS pH 7.0, 0.2 mM EDTA, 100 μM […], 10 mM magnesium acetate and [γ-^33P]-ATP (activity and concentration were determined as required). The reaction was started by adding the Mg/ATP mixture and terminated by adding 0.5% phosphoric acid after 40 min of incubation at room temperature. 10 μL of the reaction mixture was then added dropwise on a P30 filter pad and washed three times with 0.425% phosphoric acid and once with methanol within 4 minutes, then dried and analyzed using a scintillation counter.

[4] = target: JAK1(h) (Homo sapiens (Human), UniProt P23458); assay: In vitro activity assay of JAK1 kinase (radiometric, Eurofins); assay type: biochemical
JAK1(h), sequence (P23458 whole entry): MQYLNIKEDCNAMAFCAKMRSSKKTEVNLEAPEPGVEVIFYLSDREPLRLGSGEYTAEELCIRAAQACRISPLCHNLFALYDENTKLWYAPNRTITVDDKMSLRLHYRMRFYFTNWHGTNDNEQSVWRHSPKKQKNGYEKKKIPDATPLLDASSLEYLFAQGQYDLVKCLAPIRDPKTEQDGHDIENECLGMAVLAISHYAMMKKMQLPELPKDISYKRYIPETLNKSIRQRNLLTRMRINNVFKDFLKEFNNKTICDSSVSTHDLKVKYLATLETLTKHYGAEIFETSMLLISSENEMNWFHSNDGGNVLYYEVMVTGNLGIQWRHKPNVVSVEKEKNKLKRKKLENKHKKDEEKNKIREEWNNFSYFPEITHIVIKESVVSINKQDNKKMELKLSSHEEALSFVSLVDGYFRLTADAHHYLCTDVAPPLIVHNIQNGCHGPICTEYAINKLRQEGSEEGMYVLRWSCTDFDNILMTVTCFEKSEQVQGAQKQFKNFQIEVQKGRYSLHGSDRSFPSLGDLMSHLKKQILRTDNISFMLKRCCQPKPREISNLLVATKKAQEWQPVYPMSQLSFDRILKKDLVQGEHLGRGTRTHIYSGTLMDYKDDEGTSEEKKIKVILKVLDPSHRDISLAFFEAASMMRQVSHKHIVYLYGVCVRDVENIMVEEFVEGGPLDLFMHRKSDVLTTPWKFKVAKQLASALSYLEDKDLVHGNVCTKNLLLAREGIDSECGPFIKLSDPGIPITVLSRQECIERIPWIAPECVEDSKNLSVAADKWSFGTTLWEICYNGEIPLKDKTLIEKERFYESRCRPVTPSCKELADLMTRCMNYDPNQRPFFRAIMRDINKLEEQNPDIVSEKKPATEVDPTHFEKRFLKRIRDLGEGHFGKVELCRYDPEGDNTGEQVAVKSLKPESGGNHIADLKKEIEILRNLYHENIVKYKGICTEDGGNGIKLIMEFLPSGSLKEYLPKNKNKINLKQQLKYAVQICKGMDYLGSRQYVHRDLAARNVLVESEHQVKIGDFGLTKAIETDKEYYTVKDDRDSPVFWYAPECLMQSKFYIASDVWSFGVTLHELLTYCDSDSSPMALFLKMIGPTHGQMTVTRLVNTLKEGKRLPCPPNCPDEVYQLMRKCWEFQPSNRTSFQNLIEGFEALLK
Protocol: as §3, §4
as §5, with “JAK1(h)” for “JAK3(h)”, “20” for “8”, “Tris/HCl” for “MOPS”, “7.5,” for “7.0,”, “MGEEPLYWSFPAKKK,” for “GGEEEEYFELVKKKK,”

[5] = Pharmacokinetic (PK) test in mice; assay type: in vivo, mice (C57BL/6); settings: mouse, plasma, male C57BL/6 mice
Protocol: Clear solutions obtained by dissolving the test compounds were administered to male mice (C57BL/6) or rats (SD) by tail vein injection and oral gavage (overnight fasting, 7-8 weeks old). After the administration of the test compounds, blood was collected from the mandibular vein and centrifuged to obtain plasma at 0.117, 0.333, 1, 2, 4, 7 and 24 h for the intravenous injection group (1 mg/kg), and at 0.25, 0.5, 1, 2, 4, 8 and 24 h for the oral gavage group (3 mg/kg). The plasma concentration was measured by LC-MS/MS, and the relevant pharmacokinetic parameters were calculated by WinNonlin™ Version 6.3 pharmacokinetic software using non-compartmental model linear logarithmic trapezoid method.

[6] = target: TYK2(h) (Homo sapiens (Human), UniProt P29597); assay: In vitro activity assay of TYK2 kinase (radiometric, Eurofins); assay type: biochemical
TYK2(h), sequence (P29597 whole entry): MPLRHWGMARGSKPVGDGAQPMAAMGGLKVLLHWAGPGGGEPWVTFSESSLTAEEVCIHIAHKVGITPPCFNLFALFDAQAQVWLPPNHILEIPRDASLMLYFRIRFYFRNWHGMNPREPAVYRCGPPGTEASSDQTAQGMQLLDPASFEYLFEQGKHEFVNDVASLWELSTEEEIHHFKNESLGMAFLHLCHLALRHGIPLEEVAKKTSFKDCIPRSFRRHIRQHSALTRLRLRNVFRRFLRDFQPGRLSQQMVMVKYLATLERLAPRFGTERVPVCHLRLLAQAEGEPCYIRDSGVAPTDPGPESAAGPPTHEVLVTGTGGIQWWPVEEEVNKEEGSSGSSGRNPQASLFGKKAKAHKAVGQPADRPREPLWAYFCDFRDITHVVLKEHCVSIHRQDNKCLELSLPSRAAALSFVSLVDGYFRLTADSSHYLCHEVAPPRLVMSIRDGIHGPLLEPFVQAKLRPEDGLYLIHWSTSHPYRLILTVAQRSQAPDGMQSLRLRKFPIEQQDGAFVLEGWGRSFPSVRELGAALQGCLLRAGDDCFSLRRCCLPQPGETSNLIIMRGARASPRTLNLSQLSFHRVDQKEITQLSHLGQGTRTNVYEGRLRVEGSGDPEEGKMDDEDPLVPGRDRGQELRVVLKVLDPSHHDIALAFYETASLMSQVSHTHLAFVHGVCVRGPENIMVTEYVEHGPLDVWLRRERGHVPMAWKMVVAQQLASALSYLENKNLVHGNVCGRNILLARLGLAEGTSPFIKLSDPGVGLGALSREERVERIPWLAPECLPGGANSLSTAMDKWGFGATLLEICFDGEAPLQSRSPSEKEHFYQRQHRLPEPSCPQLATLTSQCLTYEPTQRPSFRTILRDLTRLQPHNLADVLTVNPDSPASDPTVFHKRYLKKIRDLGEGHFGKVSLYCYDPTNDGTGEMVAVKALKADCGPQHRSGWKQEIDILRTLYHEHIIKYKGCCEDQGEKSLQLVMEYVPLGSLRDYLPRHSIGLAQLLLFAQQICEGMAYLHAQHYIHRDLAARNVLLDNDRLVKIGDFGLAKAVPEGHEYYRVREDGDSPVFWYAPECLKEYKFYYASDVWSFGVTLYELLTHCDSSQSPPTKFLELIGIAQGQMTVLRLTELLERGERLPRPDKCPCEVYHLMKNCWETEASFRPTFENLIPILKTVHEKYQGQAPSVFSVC
Protocol: as §3, §4
as §5, with “TYK2(h)” for “JAK3(h)”, “250” for “500”, “GGMEDIYFEFMGGKKK,” for “GGEEEEYFELVKKKK,”

[7] = Basic pKa of the compound; assay type: physicochemical
Description: The present disclosure also performs salt-forming screening on L-aspartic acid, fumaric acid, L-tartaric acid and citric acid. Using the crystal form A of the compound represented by formula (II) as raw material, according to the basic pKa (4.47) of the compound and the rough solubility of the starting material in different solvents at room temperature, L-aspartic acid, fumaric acid, L-tartaric acid and citric acid were selected as acidic ligands (molar ratio of free state to acidic ligand was 1:1), and the specific steps of the screening test of five solvent systems as shown in Table 24 were as follows: about 20 mg of the starting crystal form A of the compound represented by formula (II) and equimolar amounts of the above acid were weighed into an HPLC vial, and 0.5 mL of the following solvent were added thereto and mixed to obtain a suspension. After suspending and stirring at room temperature for 3 days, the solid was separated by centrifugation and dried under vacuum at room temperature for about 4 hours.

[8] = test system: adjuvant-induced arthritis (AIA); assay: Adjuvant-induced arthritis (AIA) in rats, in-vivo pharmacodynamic study; design: species or system Lewis rats; settings: rat AIA
Protocol: The compounds disclosed herein were tested for their efficacy on arthritis using a model of adjuvant-induced arthritis in rat. Female, 160 to 180 gram Lewis rats were anesthetized with isoflurane and injected subcutaneously with 0.1 mL of Mycobacterium tuberculosis suspension in the left hind paw. The animals were grouped and administered with thetest compounds after 13 days of modeling, for example, the rats were given different doses as shown in Table 4-2. The test compound 1-13 was dissolved in a mixed menstruum of [5% DMSO, 95% (12% SBE-β-CD), 0.5% MC]. The female Lewis rats were orally administered 2 times daily (8 animals in each group).

[9] = test system: Caco-2 cells; assay: in vitro; settings: Caco-2
Protocol: as §1, §2

[10] = iv 1 mg/kg, oral gavage 3 mg/kg

For CN(c1ncnc2[nH]ccc12)[C@@H]1CCc2cc(C#N)nn2C1, the Papp A→B at 2 h, 2 μM [1] was 28.6 ×10⁻⁶ cm/s, the Papp B→A at 2 h, 2 μM [1] was 31.2 ×10⁻⁶ cm/s and the efflux ratio at 2 h, 2 μM [1] was 1.09. The IC50 [2] was 118 nM, the IC50 [3] was 8 nM and the IC50 [4] was 1 nM. For the same compound, the AUC(0-inf) [5, 10] was 12.8 µM·h, the Cmax [5, 10] was 6 µM and the half-life [5, 10] was 1.89 h. For the same compound, the bioavailability ([5]; oral gavage 3 mg/kg vs iv 1 mg/kg) was 88.4%, the IC50 [6] was 15 nM and the pKa [7] was 4.47. For the same compound, the “therapeutic effect (inhibition rate versus menstruum control group)” value ([8]; 3 mg/kg and 10 mg/kg, P<0.0001) was “significant therapeutic effect”, the “Inhibition on area under the clinical score curve (AUC)” value ([8]; 3 mg/kg oral 2 times daily) was 49.6% and the “Inhibition on area under the clinical score curve (AUC)” value ([8]; 10 mg/kg oral 2 times daily) was 60.5%.

With CC(C)(C)NCC(O)COc1cccc2c1CC(O)C(O)C2 (stereo not shown) [Nadolol] the “Mean apparent permeability coefficient Mean Papp A to B” value [9] was 0.16 10^−6 cm/s.
